Target: T1, human LPAR1 (Homo sapiens, UniProt Q92633)
T1 construct: expressed in transfected cells
Test: Test Example 1: antagonism against response of LPA-induced increase in intracellular Ca2+ concentration in RH7777 cells stably expressing human LPAR1
Format: cell-based
Conditions: not given
Description: (1) Preparation of RH7777 cells stably expressing human LPAR1
The human LPAR1 expression vector was transfected into RH7777 cells to acquire human LPAR1 expressing cells.
(2) Test of antagonism against response of LPA-induced increase in intracellular Ca^2+ concentration
Cells stably expressing human LPAR1 were used for a test of antagonism against response of LPA-induced increase in intracellular Ca^2+ concentration.
The cells were seeded onto the Poly-D-Lysine 96 well black plate and incubated overnight. […] 50 μL of the Basal Buffer (1×HBSS, 20 mM HEPES, 2.5 mM Probenecid, 0.05% BSA, 0.25 mg/mL Amaranth, pH 7.4) containing the test compound was added thereto, followed by incubation at 37° C. for 30 minutes. In FDSS6000 (Hamamatsu Photonics K.K.), LPAs were added, and the change in intracellular Ca^2+ concentration was detected using the fluorescence value of a wavelength of 540 nm by an excitation wavelength of 480 nm as an indicator. […] The Rmax under […] without the test compound was used as the control value. The Rmax under Basal Buffer stimulation with no LPAs or test compounds was used as the basal value.
The percentage (%) of increase in intracellular Ca^2+ concentration was calculated by dividing the value obtained by subtracting the basal value from Rmax in the presence of LPAs and each concentration of the test compound by the value obtained by subtracting the basal value from the control value. The concentration of each test compound was plotted on the X axis and the percentage (%) of increase in intracellular Ca^2+ concentration was plotted on the Y axis, and the IC50 value was calculated by nonlinear regression using XLfit.

T1 sequence (Q92633 whole entry): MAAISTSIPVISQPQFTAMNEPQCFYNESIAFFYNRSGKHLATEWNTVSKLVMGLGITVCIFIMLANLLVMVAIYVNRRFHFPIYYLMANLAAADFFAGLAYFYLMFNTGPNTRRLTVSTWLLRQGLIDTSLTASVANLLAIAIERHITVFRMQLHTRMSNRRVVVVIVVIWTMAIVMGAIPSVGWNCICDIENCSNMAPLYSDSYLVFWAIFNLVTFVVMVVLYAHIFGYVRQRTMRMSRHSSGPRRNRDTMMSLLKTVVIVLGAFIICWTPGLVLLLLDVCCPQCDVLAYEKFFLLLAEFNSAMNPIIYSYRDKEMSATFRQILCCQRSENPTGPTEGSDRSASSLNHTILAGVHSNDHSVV

Compared with `CCCCC(NC(=O)N(CCCCc1ccccc1)Cc1cc(OC)c(C)c(OC)c1)C(=O)O` (stereo not drawn) [Example 1-3], `COc1cc(CN(CCCCc2ccccc2)C(=O)NC(CC(C)C)C(=O)O)cc(OC)c1C` (stereo not drawn) [Example 1-5] is 2.6-fold higher in IC50: 1800 nM for the first, 4680 nM for the second.

Same assay, conditions: RH7777 cells stably expressing human LPAR1; Fluo-4 fluorescence, FDSS6000; read-out: IC50 value (concentration producing 50% antagonism against response of LPA-induced increase in intracellular Ca2+ concentration) (converted)

First: CCOc1cc([C@@H](C)N(CCCCc2ccccc2)C(=O)NC2(C(=O)O)CCC2)cc(OCC)c1C(C)O (single isomer, unassigned) [Example 1-21]
Second: CCOc1cc([C@@H](C)N(CCCCc2ccccc2)C(=O)NC2(C(=O)O)CC(F)(F)C2)cc(OCC)c1C(C)O (single isomer, unassigned) [Example 1-35]
The IC50 of the first is 1.9-fold higher: 3.38 nM for the first, 1.81 nM for the second.

`CCOc1cc([C@@H](C)N(CCCCc2ccccc2)C(=O)NC2(C(=O)O)CCC2)cc(OCC)c1C(C)O` (single isomer, unassigned) [Example 1-22] and `CCOc1cc([C@@H](C)N(CCCCc2ccccc2)C(=O)NC2(C(=O)O)CC(F)(F)C2)cc(OCC)c1C(C)O` (single isomer, unassigned) [Example 1-36] are within 1.5-fold of each other in IC50: 1.47 nM for the first, 1.04 nM for the second.

Going from `CCOc1c(C(C)O)ccc([C@@H](C)N(CCCCc2ccccc2)C(=O)NC2(C(=O)O)CC(F)(F)C2)c1C` (single isomer, unassigned) [Example 1-78] to `CCOc1cc([C@@H](C)N(CCCCc2ccccc2)C(=O)NC2(C(=O)O)CC(F)(F)C2)c(Cl)c(OCC)c1C(C)O` (single isomer, unassigned) [Example 5-52], the IC50 falls from 5.87 nM to 1.95 nM (3-fold).

First: CCOc1c(C(C)O)ccc([C@@H](C)N(CCCCc2ccccc2)C(=O)NC2(C(=O)O)CC(F)(F)C2)c1C (single isomer, unassigned) [Example 1-79]
Second: CCOc1cc([C@@H](C)N(CCCCc2ccccc2)C(=O)NC2(C(=O)O)CC(F)(F)C2)c(Cl)c(OCC)c1C(C)O (single isomer, unassigned) [Example 5-53]
The IC50 of the first is 3.1-fold higher: 7.86 nM for the first, 2.54 nM for the second.

`CCOc1cc([C@@H](C)N(CCCCc2ccccc2)C(=O)NC2(C(=O)O)CC(OC)C2)cc(OCC)c1C(C)O` (single isomer, unassigned) [Example 1-88] and `CCOc1cc([C@@H](C)N(CCCC(F)(F)c2ccccc2)C(=O)NC2(C(=O)O)CC(OC)C2)cc(OCC)c1C(C)O` (single isomer, unassigned) [Example 4-61] are within 1.5-fold of each other in IC50: 3.35 nM for the first, 3.99 nM for the second.

Compared with `CCOc1cc([C@@H](C)N(CCCCc2ccccc2)C(=O)NC2(C(=O)O)CC(OC)C2)cc(OCC)c1C(C)O` (single isomer, unassigned) [Example 1-89], `CCOc1cc([C@@H](C)N(CCCC(F)(F)c2ccccc2)C(=O)NC2(C(=O)O)CC(OC)C2)cc(OCC)c1C(C)O` (single isomer, unassigned) [Example 4-62] is 2.3-fold higher in IC50: 2.21 nM for the first, 5.15 nM for the second.

Compared with `CCOc1cc([C@@H](C)N(CCC(F)(F)Cc2ccccc2)C(=O)NC2(C(=O)O)CC(F)(F)C2)cc(OCC)c1C(C)O` (single isomer, unassigned) [Example 4-85], `CCOc1cc([C@@H](C)N(CCOCc2ccccc2)C(=O)NC2(C(=O)O)CC(F)(F)C2)c(Cl)c(OCC)c1C(C)O` (single isomer, unassigned) [Example 5-55] is 15-fold lower in IC50: 16.1 nM for the first, 1.09 nM for the second.

Going from `CCOc1cc([C@@H](C)N(CCC(F)(F)Cc2ccccc2)C(=O)NC2(C(=O)O)CC(F)(F)C2)cc(OCC)c1C(C)O` (single isomer, unassigned) [Example 4-86] to `CCOc1cc([C@@H](C)N(CCOCc2ccccc2)C(=O)NC2(C(=O)O)CC(F)(F)C2)c(Cl)c(OCC)c1C(C)O` (single isomer, unassigned) [Example 5-56], the IC50 falls from 2.75 nM to 1.04 nM (2.6-fold).

Compared with `CCOc1cc([C@@H](C)N(CCO[C@@H](C)c2ccccc2)C(=O)NC2(C(=O)O)CCOCC2)cc(OCC)c1C(C)O` (single isomer, unassigned) [Example 4-143], `CCOc1cc([C@@H](C)N(CCO[C@@H](C)c2ccccc2)C(=O)NC2(C(=O)O)CC(OC)C2)c(Cl)c(OCC)c1C(C)O` (single isomer, unassigned) [Example 5-57] is 12-fold lower in IC50: 47.4 nM for the first, 4.08 nM for the second.

Compared with `CCOc1cc([C@@H](C)N(CCO[C@@H](C)c2ccccc2)C(=O)NC2(C(=O)O)CCOCC2)cc(OCC)c1C(C)O` (single isomer, unassigned) [Example 4-144], `CCOc1cc([C@@H](C)N(CCO[C@@H](C)c2ccccc2)C(=O)NC2(C(=O)O)CC(OC)C2)c(Cl)c(OCC)c1C(C)O` (single isomer, unassigned) [Example 5-58] is 2.1-fold lower in IC50: 8.19 nM for the first, 3.82 nM for the second.

Compared with `CCOc1cc([C@@H](C)N(CCO[C@@H](C)c2ccccc2)C(=O)N[C@]2(C(=O)O)C[C@H](OC)C2)c(Cl)c(OCC)c1C(C)O` (single isomer, unassigned) [Example 5-59], `CCOc1cc([C@@H](C)N(CCO[C@@H](C)c2ccccc2)C(=O)N[C@]2(C(=O)O)C[C@@H](OCC)C2)c(Cl)c(OCC)c1C(C)O` (single isomer, unassigned) [Example 5-61] is 2.5-fold lower in IC50: 8.01 nM for the first, 3.17 nM for the second.

First: CCOc1cc([C@@H](C)N(CCO[C@@H](C)c2ccccc2)C(=O)N[C@]2(C(=O)O)C[C@H](OC)C2)c(Cl)c(OCC)c1C(C)O (single isomer, unassigned) [Example 5-60]
Second: CCOc1cc([C@@H](C)N(CCO[C@@H](C)c2ccccc2)C(=O)N[C@]2(C(=O)O)C[C@@H](OCC)C2)c(Cl)c(OCC)c1C(C)O (single isomer, unassigned) [Example 5-62]
The IC50 of the first is 5.8-fold higher: 9.05 nM for the first, 1.56 nM for the second.

Compared with `CCOc1cc([C@@H](C)N(CCOCc2ccccc2)C(=O)NC2CCOCC2C(=O)O)c(Cl)c(OCC)c1C(C)O` (single isomer, unassigned) [Example 5-69], `CCOc1cc(C(C)N(CCCCc2ccccc2)C(=O)NC2(c3nn[nH]n3)CC(F)(F)C2)c(Cl)c(OCC)c1C(C)=O` (stereo not drawn) [10-8] is 2.8-fold higher in IC50: 3.3 nM for the first, 9.3 nM for the second.

Going from `CCOc1cc([C@@H](C)N(CCOCc2ccccc2)C(=O)NC2CCOCC2C(=O)O)c(Cl)c(OCC)c1C(C)O` (single isomer, unassigned) [Example 5-70] to `CCOc1cc([C@@H](C)N(CCCCc2ccccc2)C(=O)NC(C(=O)O)C(C)O)cc(OCC)c1C` (stereo partly drawn) [Example 1-11], the IC50 rises from 4.29 nM to 352 nM (82-fold).

Compared with `CCNc1cc(C(C)N(CCCCc2ccccc2)C(=O)NC2(C(=O)O)CCC2)cc(OCC)c1C(C)=O` (single isomer, unassigned) [Example 5-111], `CCOc1cc([C@@H](C)N(CCCCc2ccccc2)C(=O)NC2(C(=O)O)CCC2)cc(OCC)c1C(C)=O` [Example 1-20] is 210-fold lower in IC50: 128 nM for the first, 0.621 nM for the second.

Compared with `CCOc1cc(C(C)N(CCCCc2ccccc2)C(=O)NC2(P(=O)(O)O)CCCC2)cc(OCC)c1C` (single isomer, unassigned) [Example 8-1, [1-({[1-(3,5-Diethoxy-4-Methylphenyl)Ethyl](4-Phenylbutyl) Carbamoyl}Amino)Cyclopentyl]Phosphonic Acid], `CCOc1cc([C@@H](C)N(CCCCc2ccccc2)C(=O)NC2(C(=O)O)CC2)cc(OCC)c1C` [Example 1-17] is 2.2-fold lower in IC50: 52.1 nM for the first, 23.7 nM for the second.

First: CCOc1cc(C(C)N(CCCCc2ccccc2)C(=O)NC2(P(=O)(O)O)CCCC2)cc(OCC)c1C (single isomer, unassigned) [Example 8-2]
Second: CCOc1cc([C@@H](C)N(CCCCc2ccccc2)C(=O)NC2(C(=O)O)CC2)cc(OCC)c1C1CC1 [Example 1-18]
The IC50 of the first is 18-fold higher: 20 nM for the first, 1.09 nM for the second.

Going from `CCOc1cc([C@@H](C)N(CCCCc2ccccc2)C(=O)NC(C)(C)C(=O)O)cc(OCC)c1C(C)=O` [Example 1-1, N-{[(1R)-1-(4-Acetyl-3,5-Diethoxyphenyl)Ethyl](4-Phenylbutyl) Carbamoyl}-2-Methylalanine] to `CCOc1cc([C@@H](C)N(CCCCc2ccccc2)C(=O)NC(C)(C)C(=O)O)cc(OCC)c1C` [Example 1-13], the IC50 rises from 3.17 nM to 20.4 nM (6.4-fold).

First: CCCCC(NC(=O)N(CCCCc1ccccc1)[C@H](C)c1cc(OCC)c(C)c(OCC)c1)C(=O)O (stereo partly drawn) [Example 1-4]
Second: CCOc1cc(C(C)N(CCCCc2ccccc2)C(=O)NC(CC(=O)O)C(=O)O)cc(OCC)c1C (stereo not drawn) [Example 1-12]
The IC50 of the first is 140-fold lower: 25.5 nM for the first, 3600 nM for the second.

Compared with `COc1cc(CN(CCCCc2ccccc2)C(=O)NC(CC(F)(F)F)C(=O)O)cc(OC)c1C` (stereo not drawn) [Example 1-6], `COc1cc(CN(CCCCc2ccccc2)C(=O)NCC(C(=O)O)C(C)C)cc(OC)c1C` (stereo not drawn) [Example 1-14] is 3.6-fold higher in IC50: 1580 nM for the first, 5690 nM for the second.

`CCOc1cc(C(C)N(CCCCc2ccccc2)C(=O)NC(Cc2ccccc2)C(=O)O)cc(OCC)c1C` (stereo not drawn) [Example 1-8] and `CCOc1cc(C(C)N(CCCCc2ccccc2)C(=O)NC(CCc2ccccc2)C(=O)O)cc(OCC)c1C` (stereo not drawn) [Example 1-9] are within 1.5-fold of each other in IC50: 125 nM for the first, 129 nM for the second.

First: CCOc1cc(C(C)N(CCCCc2ccccc2)C(=O)NC(Cc2cccnc2)C(=O)O)cc(OCC)c1C (stereo not drawn) [Example 1-10]
Second: CCOc1cc([C@@H](C)N(CCCCc2ccccc2)C(=O)NCCCC(=O)O)cc(OCC)c1C [Example 1-15]
The IC50 of the first is 3.2-fold lower: 88.5 nM for the first, 280 nM for the second.

Going from `CCOc1cc([C@@H](C)N(CCCCc2ccccc2)C(=O)NC2(C(=O)O)CC2)cc(OCC)c1C(C)=O` [Example 1-16, 1-({[(1R)-1-(4-Acetyl-3,5-Diethoxyphenyl)Ethyl](4-Phenylbutyl) Carbamoyl}Amino)Cyclopropane-1-Carboxylic Acid] to `CCOc1c(C(C)=O)ccc([C@@H](C)N(CCCCc2ccccc2)C(=O)NC2(C(=O)O)CC2)c1C` [Example 1-19], the IC50 rises from 2.23 nM to 4.1 nM (1.8-fold).

From patent US12338203B2 (TAISHO PHARMACEUTICAL CO., LTD., priority 2019, dated 2025)
